“Also recorded” adds a separate entry of the source.
Test system: mouse iPS cells
Assay: Tumorigenesis suppression effects of statins versus phenamil (osteoblasts from iPS cell aggregates transplanted under mouse dorsal skin)
Format: in vivo
Method: Statins are also known as compounds that promote osteoblast differentiation induction, and have the effect of differentiating iPS cells into osteoblasts. Osteoblasts obtained by inducing differentiation in the presence of an osteoblast differentiation induction promoter (phenamil 1 μM) that was not a statin (HMG-CoA reductase inhibitor) were used as a control.
Osteoblasts obtained by inducing differentiation for 30 days in the presence of a statin or phenamil were transplanted under mouse dorsal skin (both sides).

NC(=Nc1ccccc1)NC(=O)c1nc(Cl)c(N)nc1N [phenamil]
tumor formation after transplantation (FIG. 7) (1 μM compound in osteoblast differentiation-inducing medium for 30 days, 28 days after transplantation under mouse dorsal skin): a tumor was formed; also recorded: no tumor formation suppression effect was observed
tissue other than bone tissue (tumorigenesis/teratoma) around the grafts (H&E, FIG. 8) (1 μM compound, 30 days differentiation induction, grafts extracted after 28 days): formation of tissue other than bone tissue (teratoma) was observed
